pIC50: −log10 of the molar value.
Experiments:
KRAS G12D [1] = molecular target: T1, KRAS G12D (Homo sapiens, UniProt P01116, G12D); assay: KRAS_G12D GDP-GTP exchange assay (bodipy-GDP/GppNHp, SOS1); format: biochemical; settings: bodipy-loaded KRAS G12D 2.5 nM, 4 hours pre-incubation, 2 hours exchange
Procedure: (§1) The inhibitor potency of the exemplified compounds was determined in a fluorescence based guanine nucleotide exchange assay, which measures the exchange of bodipy-GDP (fluorescently labeled GDP) for GppNHp (Non-hydrolyzable GTP analog) to generate the active state of KRAS in the presence of SOS1 (guanine nucleotide exchange factor). Inhibitors were serially diluted in DMSO and a volume of 0.1 μL was transferred to the wells of a black low volume 384-well plate. 5 μL/well volume of bodipy-loaded KRAS G12D diluted to 2.5 nM in assay buffer (25 mM Hepes pH 7.5, 50 mM NaCl, 10 mM MgCl2 and 0.01% Brij-35) was added to the plate and pre-incubated with inhibitor for 4 hours at ambient temperature. Appropriate controls (enzyme with no inhibitor or with a G12D inhibitor) were included on the plate. The exchange was initiated by the addition of a 5 μL/well volume containing 1 mM GppNHp and 300 nM SOS1 in assay buffer. The 10 μL/well reaction concentration of the bodipy-loaded KRAS G12D, GppNHp, and SOS1 were 2.5 nM, 500 uM, and 150 nM, respectively. The reaction plates were incubated at ambient temperature for 2 hours, a time estimated for complete GDP-GTP exchange in the absence of inhibitor. For the KRAS G12V mutant, similar guanine nucleotide exchange assays were used with 2.5 nM as final concentration for the bodipy loaded KRAS proteins and 3 hours incubation after adding GppNHp-SOS1 mixture. A cyclic peptide described to selectively bind G12D mutant (Sakamoto et al., BBRC 484.3 (2017), 605-611) or internal compounds with confirmed binding were used as positive controls in the assay plates. Fluorescence intensities were measured on a PheraStar plate reader instrument (BMG Labtech) with excitation at 485 nm and emission at 520 nm.
(§2) Either GraphPad prism or XLfit was used to analyze the data. The IC50 values were derived by fitting the data to a four parameter logistic equation producing a sigmoidal dose-response curve with a variable Hill coefficient. Prism equation: Y=Bottom+(Top−Bottom)/(1+10^((Log IC50−X)*Hill slope)); XLfit equation: Y=(A+((B−A)/(1+((X/C)^D)))) where X is the logarithm of inhibitor concentration and Y is the response.

KRAS G12D [2] = molecular target: T1, KRAS G12D; assay: KRAS_G12D cellular pERK HTRF assay; format: cell-based; parameters: CRL-1997; host or cells: A427 or HPAF-II; settings: KRAS G12D cells (A427, HPAF-II), 2 hours; for pIC50: read-out: G12D_pERK (KRAS_G12D pERK assay IC50)
Procedure: MIA PaCa-2 (KRAS G12C; ATCC® CRL-1420), A427 (KRAS G12D; ATCC® HTB53), HPAF-II (KRAS G12D; ATCC® CRL-1997) and NCI-H838 (KRAS WT; ATCC® CRL-5844) cells are purchased from ATCC and maintained in RPMI 1640 media supplemented with 10% FBS (Gibco/Life Technologies). The cells are plated at 5000 cells per well (8 uL) into Greiner 384-well low volume, flat-bottom, tissue culture treated white plates and incubated overnight at 37° C., 5% CO2. The next morning, test compound stock solutions are diluted in media at 3x the final concentration, and 4 uL are added to the cells. The plate is mixed by gentle rotation for 30 seconds (250 rpm) at room temperature. The cells are incubated with the KRAS G12C and G12D compounds for 4 hours or 2 hours respectively at 37° C., 5% CO2.
4 uL of 4x lysis buffer with blocking reagent (1:25) (Cisbio) are added to each well and plates are rotated gently (300 rpm) for 30 minutes at room temperature. 4 uL per well of Cisbio anti Phospho-ERK 1/2 d2 is mixed with anti Phospho-ERK 1/2 Cryptate (1:1) are added to each well, mixed by rotation and incubated overnight in the dark at room temperature. Plates are read on the Pherastar plate reader at 665 nm and 620 nm wavelengths. IC50 determination is performed by fitting the curve of inhibitor percent inhibition versus the log of the inhibitor concentration using the GraphPad Prism 7 software.

KRAS G12V [3] = molecular target: T2, KRAS G12V (Homo sapiens, UniProt P01116, G12V); assay: KRAS_G12V GDP-GTP exchange assay (bodipy-GDP/GppNHp, SOS1); format: biochemical; settings: bodipy loaded KRAS G12V 2.5 nM, 3 hours incubation after GppNHp-SOS1; read-out: G12V_exchange (KRAS_G12V exchange assay IC50)
Procedure: as §1, §2

KRAS G12V [4] = molecular target: T2, KRAS G12V; assay: KRAS_G12V pERK assay; format: cell-based; settings: read-out: G12V_pERK (KRAS_G12V pERK assay IC50)

T1 sequence (P01116 1-188 isoform P01116-2 G12D): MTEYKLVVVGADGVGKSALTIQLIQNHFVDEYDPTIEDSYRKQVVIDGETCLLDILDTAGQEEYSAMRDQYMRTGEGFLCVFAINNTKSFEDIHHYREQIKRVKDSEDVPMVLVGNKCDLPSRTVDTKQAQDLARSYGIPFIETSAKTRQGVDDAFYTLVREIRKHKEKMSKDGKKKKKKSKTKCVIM
T2 sequence (P01116 1-188 isoform P01116-2 G12V): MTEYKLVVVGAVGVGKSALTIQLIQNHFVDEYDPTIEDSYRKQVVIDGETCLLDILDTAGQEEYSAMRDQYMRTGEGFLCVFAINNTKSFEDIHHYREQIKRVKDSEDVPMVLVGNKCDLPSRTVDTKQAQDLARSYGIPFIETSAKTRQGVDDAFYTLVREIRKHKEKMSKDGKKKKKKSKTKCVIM

| G12D_exchange (KRAS_G12D exchange assay IC50) (KRAS G12D [1]) | G12D_pERK (KRAS_G12D pERK assay IC50) (KRAS G12D [2]) | pIC50 (KRAS G12V [3]) | pIC50 (KRAS G12V [4]) | pIC50 (KRAS G12D [2]) | pIC50 (KRAS G12D [1]; read-out: G12D_exchange (KRAS_G12D exchange assay IC50)) | SMILES |
| --- | --- | --- | --- | --- | --- | --- |
| † | † | ≥ 7.00 | 5.30 to 6.00 | – | – | C[C@H](Oc1nc2c(F)c(-c3cccc4c3OCCC4)ncc2c2c1cc(C1CC[C@H]3COC(=O)N13)n2[C@H]1[C@H]2CN[C@@H]1C2)[C@@H]1CCCN1C (single isomer, unassigned) [Example 26a] |
| † | – | 6.00 to 7.00 | – | 5.30 to 6.00 | – | COC(=O)CCc1cc2c(OC[C@@]34CCCN3C[C@H](F)C4)nc3c(F)c(-c4cc(O)cc5ccccc45)ncc3c2n1C1C2CNC1C2 (single isomer, unassigned) [Example 2a] |
| † | † | ≥ 7.00 | 6.00 to 7.00 | – | – | Cc1cc2c(O[C@@H](C)[C@@H]3CCCN3C)nc3c(F)c(-c4cc(O)cc5ccccc45)ncc3c2n1C1C2CNC1C2 (single isomer, unassigned) [Example 3a] |
| – | – | 6.00 to 7.00 | – | 5.30 to 6.00 | 6.00 to 7.00 | C[C@H](Oc1nc2c(F)c(-c3cccc4c3OCCC4)ncc2c2c1cc(C1CC[C@H]3COC(=O)N13)n2[C@H]1[C@H]2CN[C@@H]1C2)[C@@H]1CCCN1C (single isomer, unassigned) [Example 26b] |
| † | – | ≥ 7.00 | 5.00 to 5.30 | 6.00 to 7.00 | – | COC(=O)CCc1cc2c(OC[C@@]34CCCN3C[C@H](F)C4)nc3c(F)c(-c4cc(O)cc5ccccc45)ncc3c2n1C1C2CNC1C2 (single isomer, unassigned) [Example 2b] |
| † | – | 6.00 to 7.00 | 5.00 to 5.30 | 6.00 to 7.00 | – | Cc1cc2c(O[C@@H](C)[C@@H]3CCCN3C)nc3c(F)c(-c4cc(O)cc5ccccc45)ncc3c2n1C1C2CNC1C2 (single isomer, unassigned) [Example 3b] |
| † | – | 5.30 to 6.00 | – | 5.00 to 5.30 | – | CN(C)C(=O)CCc1nc2c(N3CC(N(C)C)C3)nc3cc(-c4cc(O)cc5ccccc45)c(CCC#N)nc3c2n1C1C2CNC1C2 (single isomer, unassigned) [Example 17b, 3-(1-((endo)-2-azabicyclo[2.1.1]hexan-5-yl)-8-(2-cyanoethyl)-4-(3-(dimethylamino)azetidin-1-yl)-7-(3-hydroxynaphthalen-1-yl)-1H-imidazo[4,5-c][1,5]naphthyridin-2-yl)-N,N-dimethylpropanamide] |

More lines, now with the values behind:

| SMILES | G12D_exchange (KRAS_G12D exchange assay IC50) (KRAS G12D [1]) | G12D_pERK (KRAS_G12D pERK assay IC50) (KRAS G12D [2]) | pIC50 (KRAS G12V [3]) | pIC50 (KRAS G12V [4]) | pIC50 (KRAS G12D [2]) | pIC50 (KRAS G12D [1]; read-out: G12D_exchange (KRAS_G12D exchange assay IC50)) |
| --- | --- | --- | --- | --- | --- | --- |
| COC(=O)CCc1cc2c(O[C@@H](C)[C@@H]3CCCN3C)nc3c(F)c(-c4cc(O)cc5ccccc45)ncc3c2n1C1C2CNC1C2 (single isomer, unassigned) [Example 1a] | † | † | ≥ 7.00 | 5.30 to 6.00 | – | – |
| COC(=O)N1CCC[C@@H]1c1cc2c(O[C@@H](C)CN3CCCC3)nc3c(F)c(-c4cccc5scnc45)ncc3c2n1[C@H]1[C@H]2CN[C@@H]1C2 [Example 25, methyl (R)-2-(7-(benzo[d]thiazol-4-yl)-1-((1R,4R,5S)-2-azabicyclo[2.1.1]hexan-5-yl)-6-fluoro-4-(((S)-1-(pyrrolidin-1-yl)propan-2-yl)oxy)-1H-pyrrolo[3,2-c][1,6]naphthyridin-2-yl)pyrrolidine-1-carboxylate] | † | † | 6.00 to 7.00 | 5.30 to 6.00 | – | – |
| Cc1cc2c(OCC34CCCN3CCC4)nc3c(F)c(-c4cc(O)cc5ccccc45)ncc3c2n1[C@@H]1[C@@H]2CN[C@H]1C2 (relative stereo) [Example 4, 4-(1-((endo)-2-azabicyclo[2.1.1]hexan-5-yl)-6-fluoro-2-methyl-4-((tetrahydro-1H-pyrrolizin-7a(5H)-yl)methoxy)-1H-pyrrolo[3,2-c][1,6]naphthyridin-7-yl)naphthalen-2-ol] | † | – | ≥ 7.00 | 5.30 to 6.00 | 6.00 to 7.00 | – |
| COC(=O)CCc1cc2c(O[C@@H](C)[C@@H]3CCCN3C)nc3c(F)c(-c4cc(O)cc5ccccc45)ncc3c2n1C1C2CNC1C2 (single isomer, unassigned) [Example 1b] | † | – | ≥ 7.00 | 6.00 to 7.00 | – | – |
| COC(=O)CCc1nc2c(N3CC(N(C)C)C3)nc3c(F)c(-c4cc(O)cc5ccccc45)ncc3c2n1[C@@H]1[C@@H]2CN[C@H]1C2 (relative stereo) [Example 11, methyl 3-(1-((endo)-2-azabicyclo[2.1.1]hexan-5-yl)-4-(3-(dimethylamino)azetidin-1-yl)-6-fluoro-7-(3-hydroxynaphthalen-1-yl)-1H-imidazo[4,5-c][1,6]naphthyridin-2-yl)propanoate] | † | – | 6.00 to 7.00 | – | 5.30 to 6.00 | – |
| C[C@H](Oc1nc2c(F)c(-c3cccc4c3OCCC4)ncc2c2c1cc(-c1cn(C)nc1C(=O)N(C)C)n2[C@H]1[C@H]2CN[C@@H]1C2)[C@@H]1CCCN1C [Example 27, 4-(1-((1R,4R,5S)-2-azabicyclo[2.1.1]hexan-5-yl)-7-(chroman-8-yl)-6-fluoro-4-((S)-1-((S)-1-methylpyrrolidin-2-yl)ethoxy)-1H-pyrrolo[3,2-c][1,6]naphthyridin-2-yl)-N,N,1-trimethyl-1H-pyrazole-3-carboxamide] | † | – | ≥ 7.00 | 5.30 to 6.00 | 5.30 to 6.00 | – |
